Molecules are shown by their SMILES. Where two headings read alike, the source gives them in different places.

Assay type in all cases: cell-based, human
Series [1] concerns HI650 (Lung Adenocarcinoma). The series is described as follows: Cell viability analysis, lung cancer HI650. To be noted: for viability at 10 µM: Homo sapiens, NCI-H1650, 72 h.
Series [2] concerns A549 (Lung Adenocarcinoma). In words: Cell viability analysis, lung cancer A549. The note with it: for viability at 10 µM: Homo sapiens, A549, 72 h.
Series [3] deals with MKN-45 (Gastric Adenocarcinoma). In words: Cell viability analysis, gastric cancer MKN-45. The note with it: for viability at 10 µM: Homo sapiens, MKN-45, 72 h.
Series [4] relates to Hep3B (hepatocellular carcinoma). The series is described as follows: Cell viability analysis, hepatic cancer Hep3B. The note with it: Hep3B; for viability at 10 µM: Homo sapiens, 72 h, read-out: The results of antibiotic drug inhibiting cancer cell lines (cell viability analysis), Hep3B.
Series [5] concerns LoVo (Colorectal Adenocarcinoma). The series is described as follows: Cell viability analysis, colon cancer LoVo. The note with it: LoVo; for viability at 10 µM: Homo sapiens, 72 h.
Series [6] relates to A375 (Amelanotic Melanoma). In words: Cell viability analysis, skin cancer A375. To be noted: for viability at 10 µM: Homo sapiens, A-375, 72 h.
The test system of series [7] is BCC (basal cell carcinoma). The series is described as follows: Cell viability analysis, skin cancer BCC. To be noted: for viability at 10 µM: Homo sapiens, 72 h, read-out: The results of antibiotic drug inhibiting cancer cell lines (cell viability analysis), BCC.
Series [8] relates to HeLa (Cervix Adenocarcinoma). In words: Cell viability analysis, cervical cancer HeLa. The note with it: HeLa; for viability at 10 µM: Homo sapiens, 72 h.
Series [9] concerns C-33A (Cervical carcinoma). The series is described as follows: Cell viability analysis, cervical cancer C-33A. The note with it: for viability at 10 µM: Homo sapiens, C-33-A, 72 h, read-out: The results of antibiotic drug inhibiting cancer cell lines (cell viability analysis), C-33A.
The subject of the next series is T24. The series is described as follows: Cell viability analysis, bladder cancer T24. The note with it: for viability at 10 µM: Homo sapiens, T-24, 72 h, read-out: The results of antibiotic drug inhibiting cancer cell lines (cell viability analysis), T24.
Series [10] concerns MCF7 (Mammary Gland, Adenocarcinoma). In words: Cell viability analysis, breast cancer MCF7. To be noted: for viability at 10 µM: Homo sapiens, MCF7, 72 h.
For series [11], the system named is MDA-MB-231 (Mammary Gland, Adenocarcinoma). In words: Cell viability analysis, breast cancer MDA-MB-231. The note with it: for viability at 10 µM: Homo sapiens, MDA-MB-231, 72 h, read-out: The results of antibiotic drug inhibiting cancer cell lines (cell viability analysis), MDA-MB231.
The next series concerns BxPC-3. The series is described as follows: Cell viability analysis, pancreatic cancer BxPC-3. To be noted: for viability at 10 µM: Homo sapiens, BXPC-3, 72 h, read-out: The results of antibiotic drug inhibiting cancer cell lines (cell viability analysis), BxPC-3.
A further series has as its system AsPC-1. In words: Cell viability analysis, pancreatic cancer AsPC-1. The note with it: for viability at 10 µM: Homo sapiens, ASPC1, 72 h, read-out: The results of antibiotic drug inhibiting cancer cell lines (cell viability analysis), AsPC-1.
Another series relates to NIH: OVCAR-3. In words: Cell viability analysis, ovarian cancer NIH: OVCAR-3. To be noted: for viability at 10 µM: Homo sapiens, OVCAR-3, 72 h, read-out: The results of antibiotic drug inhibiting cancer cell lines (cell viability analysis), NIH-OVCAR-3.
For another series, the system named is TOV-21G. The series is described as follows: Cell viability analysis, ovarian cancer TOV-21G.
The test system of series [12] is SAS (Tongue squamous cell carcinoma). In words: Cell viability analysis, tongue cancer SAS. The note with it: for viability at 10 µM: Homo sapiens, 72 h, read-out: The results of antibiotic drug inhibiting cancer cell lines (cell viability analysis), SAS.
For a further series, the system named is U-2OS. The series is described as follows: Cell viability analysis, osteosarcoma U-2OS. To be noted: U2OS; for viability at 10 µM: Homo sapiens, 72 h, read-out: The results of antibiotic drug inhibiting cancer cell lines (cell viability analysis), U2OS.
Series [13] has as its system 786-O (Renal adenocarcinoma). In words: Cell viability analysis, renal cancer 786-O. To be noted: for viability at 10 µM: Homo sapiens, 786-0, 72 h, read-out: The results of antibiotic drug inhibiting cancer cell lines (cell viability analysis), 786-O.
The subject of the next series is cancer cell lines. In words: Cell viability analysis (WST-1) on cancer cell lines. To be noted: drug 10 μM, 72 hours, WST-1; Table 3. (In general: Formazan colour is commonly taken as a measure of viable cells.)
Series [14] relates to AGS (Gastric Adenocarcinoma). In words: Cell viability analysis, gastric cancer AGS. The note with it: Homo sapiens, 72 h.
The subject of series [15] is HepG2 (Hepatocellular Carcinoma). In words: Cell viability analysis, hepatic cancer HepG2. The note with it: Homo sapiens, HepG2, 72 h.
In series [16] the test system is TSGH-8301 (Urinary Bladder Carcinoma). The series is described as follows: Cell viability analysis, bladder cancer TSGH-8301. To be noted: Homo sapiens, 72 h.
Series [17] concerns HL-60 (Acute Promyelocytic Leukemia). In words: Cell viability analysis, leukemia HL-60. The note with it: Homo sapiens, HL-60, 72 h, read-out: cell viability (survival rate), HL-60, drug 10 μM, 72 hours, WST-1, OD450 nm.
[18] abbreviates: read-out: The results of antibiotic drug inhibiting cancer cell lines (cell viability analysis), LoVo, repeated experiment.
Setting [19] is: read-out: cell viability (survival rate), LoVo, drug 10 μM, 72 hours, WST-1, OD450 nm.

For `Cc1onc(-c2ccccc2Cl)c1C(=O)N[C@@H]1C(=O)N2[C@@H]1SC(C)(C)[C@@H]2C(=O)[O-].[Na+]` [Cloxacillin sodium (Cloxacap)], in series [1] (H1650, repeated experiment), the “The results of antibiotic drug inhibiting cancer cell lines (cell viability analysis), H1650” value is reported as 86.43. For the same compound, the “The results of antibiotic drug inhibiting cancer cell lines (cell viability analysis), A549” value in [2] (A549, repeated experiment) is listed as 98.33. The “The results of antibiotic drug inhibiting cancer cell lines (cell viability analysis), MKN-45” value in series [3] (MKN-45, repeated experiment) is reported as 111.3. In addition, the “The results of antibiotic drug inhibiting cancer cell lines (cell viability analysis), Hep3B” value in series [4] (repeated experiment) is reported as 118.4. Also, the “The results of antibiotic drug inhibiting cancer cell lines (cell viability analysis), LoVo” value in [5] (repeated experiment) amounted to 98.38. Besides, the “The results of antibiotic drug inhibiting cancer cell lines (cell viability analysis), A375” value in series [6] (A375, repeated experiment) was determined as 110.7. In addition, in [7] (BCC, repeated experiment), the “The results of antibiotic drug inhibiting cancer cell lines (cell viability analysis), BCC” value was determined as 116.6. Moreover, the “The results of antibiotic drug inhibiting cancer cell lines (cell viability analysis), HeLa” value in series [8] (repeated experiment) is on record as 120.1. In series [9] (C-33A, repeated experiment), the “The results of antibiotic drug inhibiting cancer cell lines (cell viability analysis), C-33A” value is given as 104.6. Moreover, the “The results of antibiotic drug inhibiting cancer cell lines (cell viability analysis), T24” value with T24 (T24, repeated experiment) turned out to be 100.9. Also, the “The results of antibiotic drug inhibiting cancer cell lines (cell viability analysis), MCF-7” value in [10] (MCF-7, repeated experiment) is 103.7. For the same compound, the “The results of antibiotic drug inhibiting cancer cell lines (cell viability analysis), MDA-MB231” value in [11] (MDA-MB231, repeated experiment) turned out to be 101.6. In addition, the “The results of antibiotic drug inhibiting cancer cell lines (cell viability analysis), BxPC-3” value in the series with BxPC-3 (BxPC-3, repeated experiment) was found to be 69.13. For the same compound, in the series with AsPC-1 (AsPC-1, repeated experiment), the “The results of antibiotic drug inhibiting cancer cell lines (cell viability analysis), AsPC-1” value came out at 80. In the series with NIH: OVCAR-3 (NIH-OVCAR-3, repeated experiment), the “The results of antibiotic drug inhibiting cancer cell lines (cell viability analysis), NIH-OVCAR-3” value was 106.9. The “The results of antibiotic drug inhibiting cancer cell lines (cell viability analysis), TOV-21G” value in the series with TOV-21G (TOV-21G, repeated experiment) is given as 105.9. In addition, in series [12] (SAS, repeated experiment), the “The results of antibiotic drug inhibiting cancer cell lines (cell viability analysis), SAS” value was 70.4. Moreover, the “The results of antibiotic drug inhibiting cancer cell lines (cell viability analysis), U2OS” value in the series on U-2OS (repeated experiment) is listed as 69.87. Further, the “The results of antibiotic drug inhibiting cancer cell lines (cell viability analysis), 786-O” value in series [13] (786-O, repeated experiment) stood at 106.1.
Consider `N=C(N)c1ccc(OCCCCCOc2ccc(C(=N)N)cc2)cc1` [Pentamidine], for which the “inhibition effect on different cancer cell lines” value with cancer cell lines is on record as “significant inhibition effect”. Besides, the viability (in general, a read-out of living cells in per cent, often relative to untreated cells) at 10 µM turned out to be 68.5% in series [1] (read-out: The results of antibiotic drug inhibiting cancer cell lines (cell viability analysis), H1650, H1650, repeated experiment); 65.8% in [1] (read-out: cell viability (survival rate), H1650, drug 10 μM, 72 hours, WST-1, OD450 nm); 35.4% in [2] (read-out: The results of antibiotic drug inhibiting cancer cell lines (cell viability analysis), A549, A549, repeated experiment); 51.8% in series [2] (read-out: cell viability (survival rate), A549, drug 10 μM, 72 hours, WST-1, OD450 nm); 92.4% in series [14] (read-out: The results of antibiotic drug inhibiting cancer cell lines (cell viability analysis), AGS, repeated experiment); 50.6% in series [14] (read-out: cell viability (survival rate), AGS, drug 10 μM, 72 hours, WST-1, OD450 nm). Also, the viability at 10 µM in [3] (read-out: The results of antibiotic drug inhibiting cancer cell lines (cell viability analysis), MKN-45, MKN-45, repeated experiment) came to 97.3%; in [3] (read-out: cell viability (survival rate), MKN-45, drug 10 μM, 72 hours, WST-1, OD450 nm), 86.3%; in [15] (read-out: The results of antibiotic drug inhibiting cancer cell lines (cell viability analysis), HepG2, HepG2, repeated experiment), 69.1%; in series [15] (read-out: cell viability (survival rate), HepG2, drug 10 μM, 72 hours, WST-1, OD450 nm), 76.4%; in series [4], 72%; in series [5] (setting [18]), 63.4%. In addition, the viability at 10 µM in [5] (setting [19]) amounted to 74.4%; in [6] (read-out: The results of antibiotic drug inhibiting cancer cell lines (cell viability analysis), A375, A375, repeated experiment), 49.8%; in series [6] (read-out: cell viability (survival rate), A375, drug 10 μM, 72 hours, WST-1, OD450 nm), 38.2%; in series [7] it was 45.8%; in series [8] (read-out: The results of antibiotic drug inhibiting cancer cell lines (cell viability analysis), HeLa, repeated experiment), 44.6%; in series [8] (read-out: cell viability (survival rate), HeLa, drug 10 μM, 72 hours, WST-1, OD450 nm), 55.9%. The viability at 10 µM in series [9] was found to be 65.7%; in [16] (read-out: The results of antibiotic drug inhibiting cancer cell lines (cell viability analysis), TSGH-8301, TSGH-8301, repeated experiment), 82.7%; in series [16] (read-out: cell viability (survival rate), TSGH, drug 10 μM, 72 hours, WST-1, OD450 nm), 59.3%; in the series with T24, 123%; in [10] (read-out: The results of antibiotic drug inhibiting cancer cell lines (cell viability analysis), MCF-7, MCF-7, repeated experiment), 60.5%; in [10] (read-out: cell viability (survival rate), MCF7, drug 10 μM, 72 hours, WST-1, OD450 nm) it was 68.5%. The viability at 10 µM in [11] came out at 79%; with BxPC-3 it was 55%; in the series with AsPC-1 it was 66.2%; in the series on NIH: OVCAR-3, 90.9%; with TOV-21G (Homo sapiens, TOV21G, 72 h, read-out: The results of antibiotic drug inhibiting cancer cell lines (cell viability analysis), TOV-21G), 82.9%; in series [12], 50.9%. Besides, the values for the viability at 10 µM (with U-2OS; in [13]; in [17]) were 43.9%, 67.3% and 57.8%, respectively.
For `CC(C)c1nc(CN(C)C(=O)N[C@H](C(=O)N[C@@H](Cc2ccccc2)C[C@H](O)[C@H](Cc2ccccc2)NC(=O)OCc2cncs2)C(C)C)cs1` [Ritonavir], the “inhibition effect on different cancer cell lines” value with cancer cell lines is listed as “significant inhibition effect”. The viability at 10 µM came out at 102% in series [4]; 90.2% in [5] (setting [18]); 82.3% in series [5] (setting [19]); 86.4% in series [7]; 111% in series [9]; 97.3% in the series with T24. In addition, the viability at 10 µM in series [11] was determined as 102%; in the series with BxPC-3, 89.6%; in the series with AsPC-1, 88.6%; in the series with NIH: OVCAR-3, 92.2%; in series [12] it was 73.2%; in the series with U-2OS, 87.1%. In addition, in series [13], the viability at 10 µM is 102%.

(Values after patent US10105357B2, “Indication of antibiotic drugs for preparation of cancer inhibition pharmaceutical composition” (LAUNX BIOMEDICAL CO., LTD., priority 2014, dated 2018).)
